The series is described as follows: solubility SETM (THF): mass of tetrahydrofuran required to dissolve 1 g of the azoquinone derivative. As to conditions: mass (g) of tetrahydrofuran required to dissolve 1 g of the azoquinone derivative. Type of series: physicochemical. The text has this: The solubility SETM (THF) of the azoquinone derivative having a structure represented by the general formula (ET1) (the mass (g) of tetrahydrofuran required to dissolve 1 g of the azoquinone derivative) preferably satisfies the following inequality:
For the azoquinone derivative having a structure represented by the general formula (ET1) in a preferred embodiment, the solubility SETM (THF), as represented by the mass (g) of tetrahydrofuran required to dissolve 1 g of the electron transport materials), of the electron transport materials also satisfies the following inequality:
The solubility SETM (THF) of the azoquinone derivative, as represented by the mass (g) of tetrahydrofuran required to dissolve 1 g of the azoquinone derivative having a structure represented by the above structural formula (ET1-4)), was 1 (g).

For `CC(C)(C)C1=CC(=CN=Nc2c(Cl)cc(Cl)cc2Cl)C=C(C(C)(C)C)C1=O` [ET1-5], the “solubility SETM (THF)” value is recorded as 1 g. The result for `CC(C)(C)C1=CC(=CN=Nc2ccc(Cl)cc2)C=C(C(C)(C)C)C1=O` [ET-1] reads 3 g; that for `CC(C)(C)C1=CC(=CN=Nc2c(Cl)cccc2Cl)C=C(C(C)(C)C)C1=O` [ET1-3], at most 1 g. The result for `CC(C)(C)C1=CC(=CN=Nc2ccc(F)cc2F)C=C(C(C)(C)C)C1=O` [ET-2] reads 15 g; that for `CC(C)(C)C1=CC(=CN=Nc2cc(Cl)ccc2Cl)C=C(C(C)(C)C)C1=O` [ET1-4], 1 g; that for `CC(C)(C)C1=CC(=CN=Nc2c(F)c(F)c(F)c(F)c2F)C=C(C(C)(C)C)C1=O` [ET-3], 22 g.
